We go through four compounds from patent US7767409B2, “Method for detection of substance bound to nuclear receptor” (Fujikura Kasei Co., Ltd., priority 2005, dated 2010).

Assay type in all cases: biochemical
The target in experiment [1] is T1, human liver X receptor α-GST fusion protein (LXR-α) (Homo sapiens, UniProt Q13133).
T1 construct: made in house
T1 sequence (Q13133 209-447 limits assumed): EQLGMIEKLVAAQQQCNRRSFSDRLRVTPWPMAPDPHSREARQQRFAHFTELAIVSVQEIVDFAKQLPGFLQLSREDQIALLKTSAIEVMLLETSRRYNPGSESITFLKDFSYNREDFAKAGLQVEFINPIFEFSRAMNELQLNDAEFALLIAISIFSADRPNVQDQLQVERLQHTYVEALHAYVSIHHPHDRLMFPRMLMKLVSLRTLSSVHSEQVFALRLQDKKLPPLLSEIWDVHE
As to the kind of experiment: Agonist assay with nuclear receptor-GST fusion protein, LXR-α. The conditions noted are these: FIG. 9.

In experiment [2] the target is T2, human liver X receptor β-GST fusion protein (LXR-β) (Homo sapiens, UniProt P55055).
T2 construct: made in house
T2 sequence (P55055 222-460 limits assumed): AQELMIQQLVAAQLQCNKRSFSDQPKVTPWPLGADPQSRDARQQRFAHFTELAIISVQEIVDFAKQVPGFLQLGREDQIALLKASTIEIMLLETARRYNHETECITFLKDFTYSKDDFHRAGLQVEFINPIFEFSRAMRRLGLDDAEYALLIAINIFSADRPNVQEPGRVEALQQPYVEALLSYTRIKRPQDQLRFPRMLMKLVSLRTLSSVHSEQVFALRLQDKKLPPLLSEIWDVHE
As to the kind of experiment: Agonist assay with nuclear receptor-GST fusion protein, LXR-β. As to conditions: FIG. 9.

Experiment [3] addresses T3, human estrogen receptor α-GST fusion protein (ER-α) (Homo sapiens, UniProt P03372).
T3 construct: made in house; host or cells: Escherichia coli BL21
T3 sequence (P03372 311-547 limits assumed): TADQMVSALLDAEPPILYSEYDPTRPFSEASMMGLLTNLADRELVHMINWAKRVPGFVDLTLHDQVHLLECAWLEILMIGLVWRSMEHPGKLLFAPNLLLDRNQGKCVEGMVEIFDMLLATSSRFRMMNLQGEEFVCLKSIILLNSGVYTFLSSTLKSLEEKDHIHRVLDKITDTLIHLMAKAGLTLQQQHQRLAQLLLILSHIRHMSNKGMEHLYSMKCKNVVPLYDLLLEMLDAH
As to the kind of experiment: Assay of ligand using coactivator SRC1-bound plate, ER-α (present detection method). The conditions noted are these: HRP-labeled anti-GST antibody, 450 nm, FIG. 6. The protocol:
In a manner similar to that of the aforementioned existing method, a purified ER-α product (10 mL) was prepared from an ER-α cell culture (1 L). By use of this product, the amount of an assay reagent prepared was examined as described hereinbelow. Avidin was immobilized on a plate in advance, and a biotinylated coactivator SRC1 (0.01 mg/mL, dissolved in DMSO) was prepared into a solution (final concentration: […]) by use of a washing buffer. The thus-prepared solution was dispensed into the plate (100 μL/well), followed by impregnation for one hour, to thereby prepare an SRC1-bound plate. […] After reaction with shaking for one hour, the plate was washed with a washing buffer, and an HRP-labeled anti-GST antibody solution prepared by diluting the antibody with a washing buffer by a factor of 1/40,000 was dispensed into the plate (100 μL/well), followed by reaction with shaking for one hour. After reaction, the plate was washed with a washing buffer; a color-developing reagent was added to the plate (100 μL/well); and the plate was allowed to stand still for 10 minutes for color development reaction. Color development reaction was stopped by use of 1 N sulfuric acid, followed by measurement at a wavelength of 450 nm by means of a plate reader.
An HRP-labeled anti-GST antibody was employed for assay.

Experiment [4] concerns the target T4, human estrogen receptor β-GST fusion protein (ER-β) (Homo sapiens, UniProt Q92731).
T4 construct: made in house; host or cells: Escherichia coli BL21
The experiment can be described thus: Assay of ligand using coactivator SRC1-bound plate, ER-β. As to conditions: HRP-labeled anti-GST antibody, 450 nm, FIG. 6.

T4 sequence (Q92731 264-498 limits assumed): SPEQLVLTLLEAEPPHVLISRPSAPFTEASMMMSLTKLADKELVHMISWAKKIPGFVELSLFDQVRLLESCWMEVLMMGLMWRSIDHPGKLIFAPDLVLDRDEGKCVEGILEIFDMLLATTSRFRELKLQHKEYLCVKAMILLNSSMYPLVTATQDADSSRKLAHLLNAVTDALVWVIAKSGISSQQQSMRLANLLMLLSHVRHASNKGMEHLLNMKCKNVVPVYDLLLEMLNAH

Consider `O=S(=O)(c1ccccc1)N(CC(F)(F)F)c1ccc(C(O)(C(F)(F)F)C(F)(F)F)cc1` [TO-901317], for which the “OD, agonist dose dependence” value in experiment [1] and in experiment [2] was “OD was increased in a manner dependent on the dose of the corresponding agonist” each time. `CC(C)(c1ccc(O)cc1)c1ccc(O)cc1` [bisphenol A]: the “OD (binding of receptor to immobilized coactivator), agonist mode” value (from here on “OD … agonist mode”) in experiment [3] and in experiment [4] was “increase in OD was observed” each time. As for nonylphenol, the “OD … agonist mode” value in experiment [3] and in experiment [4] was “increase in OD was observed” each time. In the case of `CC/C(=C(/CC)c1ccc(O)cc1)c1ccc(O)cc1` [diethylstilbestrol], the “OD … agonist mode” value in experiment [4] is “increase in OD was observed”.
